Experimental data: US7714014B2, “Targeting GLI proteins in human cancer by small molecules” (The Regents of the University of California, priority 2005, dated 2010)

Key:
[1] = test system: normal human muscle cells; assay: Cell survival assay (crystal violet); type: cell-based; conditions: 1, 10, 30, and 50 μM, 3 days
Protocol: (§1) Typically, the small molecule compounds of the present invention were dissolved in DMSO at a concentration of 30 mM. The small molecule compounds were then tested under cell culture conditions at different concentrations ranging from 0, 10, 30, 50, to 100 uM. To determine cell survival after treatment, the cells were incubated with the small molecule compounds in 6-well plates for about 3 days. After removal of the cell culture medium, 1-ml of 0.5% crystal violet solution (prepared in 20% ethanol and 20% methanol) was added to stain the cells for 5 min. Then the crystal violet solution was rinsed clean with tap water. Cell survival was estimated based on the density of crystal stained plates.
The cell killing effect of small molecule compounds FN1-8, FN1-7, and FN1-5 at different doses was examined in normal human muscle cells. […] Normal muscle cells were plated in 6-well plates and incubated with 1, 10, 30, and 50 μM of each compound for 3 days, in the same manner as described herein for similar other experiments. […] Both FN1-5 and FN1-8 seem to be specific in killing cancer cells.

[2] = test system: primary cultured human mesothelioma cells; assay: Cell survival assay (crystal violet); type: cell-based; conditions: 50 and 100 μM, 3 days
Protocol: Fresh cancer tissue and adjacent normal tissue from patients undergoing curative primary resection of their tumors were collected at the time of surgery (IRB approval H8714-15319-040), and immediately snap-frozen in liquid nitrogen. These tissue samples were kept at −170° C. in a liquid nitrogen freezer until further use. Primary tissue cultures were prepared as follows: Fresh cancer tissue was obtained with consent from patients undergoing resection, cut into small pieces (1-2 mm in diameter), and then digested with Collagenase A (Roche Applied Science, Indianapolis, Ind.) at room temperature for 2 hours according to manufacture's protocol. Single cells from the digestion were spun down and the cell pellets were washed twice using RPMI 1640 supplemented with 10% fetal bovine serum, penicillin (100 IU/ml) and streptomycin (100 μg/ml). Then, the cells were resuspended in the same medium and cultured in 6-well plates at 37° C. in a humid incubator with 5% CO2 until they were ready for further treatments.
as §1
Next, the effect of different small molecule compounds on primary cultured human mesothelioma cells freshly made from tissue samples was examined. The primary cultures were plated in 6-well plates as described herein and incubated with 50 and 100 μM of each compound (FN1-5, FN1-7, FN1-8, and FN3-5; stocks were dissolved in DMSO at 30 mM) for 3 days. […] (FIG. 8).

[3] = test system: human SOCS3 promoter in NSCLC cell line A549; assay: SOCS3 promoter-luciferase reporter assay; type: cell-based; conditions: A549, 30 μM, 18-24 hours
Protocol: One day before transfection, cells (1×10^5) were plated in 12-well plates with growth medium without antibiotics. When cells reached 80-90% of confluence they were co-transfected using 0.5 μg of each promoter construct in pGL3Basic vector and 0.025 μg pRL-TK Vector (Promega; Madison, Wis.) containing Renilla Luciferase as an internal control for the transformation efficiency. Lipofectamine 2000™ (Invitrogen Life Technologies) was used to mediate transfection for about 6 hours. Then the medium was replaced with fresh medium containing various small molecule compounds at a concentration of 30 μM, and the resulting cells were cultured for an additional 18-24 hours and subjected to luciferase assay. Briefly, cells were lysed in a lysis buffer and Firefly and Renilla Luciferase activities in cells of each well, were measured using Dual-Luciferase Assay System (Promega) and an illuminometer. The measured luciferase activities were normalized to pRL-TK Vector activity and were given relative to the basal activity of empty pGL3-Basic Vector, which was set to unity. The data shown represent mean values (±S.D.). All measurements were performed in triplicate and repeated in at least three independent experiments. The human Wnt-2 promoter-luciferase construct, the human SOCS3 promoter-Luciferase construct and the human Gremlin promoter-luciferase construct were cloned and characterized in the laboratory of Dr. Jablons at the University of California, San Francisco (San Francisco, Calif.; He et al., Biochem Biophy Res Comm, 2003; and unpublished data). The 6GLI-TKO-luciferase construct (containing 6 repeats of consensus GLI DNA binding sequence) was kindly provided by Dr. Matthias Hebrok's laboratory at the University of California, San Francisco (San Francisco, Calif.).
As a third specificity test for the small molecule compounds of the present invention, the ability of these compounds to regulate the expression of genes that are not down-stream targets of the Gli activation was analyzed. SOCS3, an inhibitor and down-stream target gene of JAK/STAT pathway was chosen for this experiment. Expression of SOCS3 is not under control of Gli and/or Wnt activation. Furthermore, no GLI and TCF binding sites were found in the human SOCS3 promoter cloned in the laboratory of Dr. Jablons (University of California, San Francisco; data not shown). Thus, SOCS3 promoter-luciferase reporter activity was measured after the treatment of the NSCLC cell line A549 with small molecule compounds FN1-5, FN1-7, FN1-8, and FN1-9U.

melanoma cell line LOX = assay: Cell survival assay (crystal violet); type: cell-based, human; conditions: 100 μM, 3 days
Protocol: as §1
The effect of small molecule compounds FN1-5, FN1-8, FN1-7, FN1-9U, and FN1-9S was tested using a cytotoxicity assay and the melanoma cell line LOX. LOX cells were plated in 6-well plates and incubated with 100 μM of each compound (stocks were dissolved in DMSO at 30 mM) for 3 days, as described herein. […] Live cells were stained by 0.5% crystal violet.
Cell killing was also tested using human melanoma cell line LOX and different doses of the small molecule compounds FN1-5 and FN1-8. LOX cells were plated in 6-well plates and incubated with 10, 30, and 50 μM of each compound for 3 days, as described herein.

[4] = test system: colon cancer cell lines SW480 and HCT116; assay: Cytotoxicity and apoptosis assays; type: cell-based, human; conditions: 10, 30, 50, and 100 μM; data not shown
Protocol: as §1
(§2) Apoptosis was analyzed by using an Annexin V FITC Apoptosis Detection Kit (Biosource, Camarillo, Calif.), according to the manufacturer's protocol. After treatment with different small molecule compounds at various concentrations for about 3 days, cells were harvested by trypsinization, stained and immediately analyzed by flow cytometry (FACScan; Decton Dickinson, Franklin Lake, N.J.). Early apoptotic cells with exposed phosphatidylserine but intact cell membranes will bind to Annexin V-FITC, but not propidium iodide (PI). Cells in necrotic or late apoptotic stages will be labeled with both Annexin V-FITC and PI. […]

H1299 and A549 cells = assay: Cytotoxicity and apoptosis assays; type: cell-based, human; conditions: 10, 30, 50, and 100 μM; data not shown
Protocol: as §1, §2

[5] = test system: mesothelioma cell line MS-1; assay: Cytotoxicity and apoptosis assays; type: cell-based, human; conditions: 10, 30, 50, and 100 μM (FN1-9U effect at 100 μM)
Protocol: as §1, §2

Compound | cell killing effect in normal cells [1] | cell killing effect [2] | SOCS3 promoter activity [3] | cell killing effect (melanoma cell line LOX) | cell killing effect or apoptosis [4] | cell killing effect or apoptosis (H1299 and A549 cells) | cell killing effect or apoptosis [5]
O=C(NCCCO)C1C(c2ccccc2)=NN(c2ccccc2)C1c1ccccc1 (stereo not shown) [FN1-7, N-(3-Hydroxypropyl)-1,3,5-triphenyl-4,5-dihydro-pyrazole-4-carboxyanide] | No noticeable cell killing effect | No significant cell killing | inactive | Some killing | – | – | –
O=C(O)CCCCNC(=O)C1C(c2ccccc2)C(c2ccccc2)=NN1c1ccccc1 (stereo not shown) [FN1-9S, 5-(1,3,4-triphenyl-4,5-dihydro-pyrazole-5-carbonyl)aminopentanoic acid] | – | – | – | – | No dramatic cell killing effect or apoptosis | no noticeable cell killing effect or apoptosis | no cell killing effect or apoptosis
O=C(O)CCCCNC(=O)C1C(c2ccccc2)=NN(c2ccccc2)C1c1ccccc1 (stereo not shown) [FN1-9U, 5-(1,3,5-Triphenyl-4,5-dihydro-pyrazole-4-carbonyl)aminopentanoic acid] | – | – | inactive | Some killing | No dramatic cell killing effect or apoptosis | no noticeable cell killing effect or apoptosis | some cell killing
CC(C)CC1=NN(c2ccccc2)C(CC(C)C)C1C(=O)NCCCCCO (stereo not shown) [FN3-5, N-(5-Hydroxypentyl)-1-phenyl-3,5-bis(isobutyl)-4,5-dihydro-pyrazole-4-carboxyamide] | – | No significant cell killing | – | – | – | – | –
